Read-outs that look alike come from different tables or passages of the source.
Tests used:
[1] = target: T1, β-lactame receptor (RSA) (Staphylococcus aureus, UniProt P18357); assay type: binding; conditions: milk
T1 construct: made in house
T1 sequence (P18357 331-585 limits assumed): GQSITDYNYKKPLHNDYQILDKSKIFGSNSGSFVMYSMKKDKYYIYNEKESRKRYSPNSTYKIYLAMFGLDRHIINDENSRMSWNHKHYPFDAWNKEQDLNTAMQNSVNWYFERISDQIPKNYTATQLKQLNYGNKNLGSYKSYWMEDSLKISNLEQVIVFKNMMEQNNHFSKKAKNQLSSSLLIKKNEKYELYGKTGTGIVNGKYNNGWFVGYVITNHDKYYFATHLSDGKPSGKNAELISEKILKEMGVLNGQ
Experimental: (§1) The reactive mixture comprises: • 5 parts of β-lactame receptor (RSA) at a concentration of 360 nM; • 10 parts of a monoclonal anti-RSA antibody attached to colloidal gold (OD=10 at 520 nm); • 1 part of biotinylated and diluted anti-sulfadimethoxin in NaPi 50 mM, NaCl 150 mM, pH 7.8; • 10 parts of a dilution of BSA-sulfadimethoxin-gold of 40 nm; • 24 parts of Hepes buffer 120 mM, pH 8, BSA 2%, Dextran 1%, sucrose 5%. This mixture is prepared either as required or lyophilisated for 20 hours. Biotinylation of the Anti-Sulfadimethoxin Antibody
(§2) The recovery system is identical to that of example 1. However, in the present case, it is the biotinylated antisulfamide antibody that will be recovered in the avidine fixed at the second capture point above the control zone.
(§3) 200 μL of cold milk are incubated for 15 minutes at 30° C. in the presence of 50 μL of the reagents prepared above. After this first incubation, the above-described recovery element is immersed in the solution. Final interpretation is made after a second incubation of 15 minutes.

[2] = tested on: antisulfamide rabbit antibody; experiment: Example 4 dipstick test in meat (pig muscle) extract, sulfamide capture zone (format 2); assay type: binding
Experimental: (§4) This mixture is either prepared as required or lyophilisated for 20 hours. The Recovery System
(§5) The recovery system is similar to that of example 1. However, in the present case, it is an anti-mouse antibody that forms the first capture point where the monoclonal anti-TetR antibody will be recovered and it is a chicken anti-rabbit antibody that forms the second capture point where the antisulfamide antibody will be recovered.
(§6) 30 ml of a buffer of NaPi 50 mM, pH 8 is added to 10 g of pig muscle and the mixture is mixed with a mixer of type MiniMix (Interscience, F) for 2 minutes. The solution, collected in an Eppendorf tube, is then centrifuged for 1 minute at 6,000 rpm to recover the supernatant from it. 200 μL of supernatant are incubated for 15 minutes at 25° C. in the presence of 50 μL of the reagents prepared above. After this first incubation, the above-described recovery element is immersed in the solution. The final interpretation is made after a second incubation of 15 minutes.

[3] = tested on: tetracycline receptor (TetR); experiment: Example 4 dipstick test in meat (pig muscle) extract, tetracycline capture zone (format 2); assay type: binding, E. Coli
Experimental: as §4, §5, §6

[4] = tested on: tetracycline receptor (TetR); experiment: Example 2 three-parameter dipstick test in milk, tetracycline capture zone (format 1); assay type: binding, E. Coli
Experimental: (§7) This mixture is prepared either as required or lyophilisated for 20 hours. The Recovery System
(§8) The other capture zones are identical but differently positioned, as in FIG. 2.
(§9) A single control zone serves as a reference for the three markers.
(§10) 200 μL of cold milk are incubated at 50° C. in the presence of 50 μl of the reagents prepared and/or lyophilisated as above. After 3 minutes of incubation at 50° C., the above-described recovery element is immersed in the solution. The final interpretation is made after 3 minutes of incubation by means of an optical dipstick reader available at Matest (Germany).
(§11) As a general rule, if the ratio of the intensities of the concerned test signal relative to the control signal is less than or equal to 1, the sample is considered as positive for the parameter (compound) concerned.

[5] = tested on: polyclonal antisulfamide rabbit antibody; experiment: Example 5 dipstick test in milk, sulfamide capture zone (format 2); assay type: binding
Experimental: (§12) This mixture is either prepared as required or lyophilisated for 20 hours.
as §3

[6] = tested on: biotinylated anti-sulfadimethoxin antibody; experiment: Example 3 dipstick test in milk, sulfamide capture zone (format 2); assay type: binding
Experimental: as §1
825 μL of a solution comprising 5 mg/ml of anti-sulfadimethoxin antibody dialysed in a carbonate buffer 100 mM, pH 9.2 are incubated in the presence of 165 μL of a solution of biotin-LC-NHS at 1.5 mg/ml (available at Perbio, Inc.) for 2 hours at 25° C. sheltered from light. The reaction is blocked by the addition of 10 μL of a solution of a Tris buffer 1M pH 8 for 30 minutes before dialysis 2× for 10 hours against a buffer of NaPi 50 mM, NaCl 150 mM, pH 7.8.
The preparation of BSA-sulfadimethoxin described in example no. 2 is used fixed to particles of colloidal gold in a protocol similar to that described in example no. 1 for preparing the control BSA-gold solution.
as §2, §3

[7] = target: T1, β-lactame receptor (RSA); assay type: binding; conditions: milk; remark: listed apart in the source
Experimental: as §12, §3

[8] = tested on: anti-sulfadimethoxin antibody; experiment: Example 2 three-parameter dipstick test in milk, sulfadimethoxin capture zone (format 1); assay type: binding
Experimental: as §7, §8
The preparation is achieved by the procedure described by Dixon-Holland and Katz^(9). 100 mg of sulfadimethoxin and 200 mg of BSA solubilized in 25 ml of a mixture, comprising two parts of a phosphate buffer of 50 mM, pH 7.2 and 1 part of dioxane, are incubated in the presence of 120 μL of 25% glutaraldehyde stirred for 3 hours at 25° C. The solution is then dialysed for 6 days at 4° C. against 100 volumes of a buffer of NaPi 50 mM, pH 7.2 with a change of buffer every 12 hours.
as §9, §10, §11

[9] = target: T1, β-lactame receptor (RSA); assay type: binding; conditions: milk; remark: listed apart in the source
Experimental: as §7, §8, §9, §10, §11

[10] = tested on: tetracycline receptor (TetR); experiment: Example 5 dipstick test in milk, tetracycline capture zone (format 1); assay type: binding, E. Coli
Experimental: as §12, §3

Ratio of the measurement intensities B/C ([1]; sulfamide 50 ppb): 1.95
Ratio of the measurement intensities B/C ([1]; sulfamide 100 ppb): 1.9
Ratio of the measurement intensities B/C ([1]; sulfamide 150 ppb): 2.2
Ratio of the measurement intensities B/C ([1]; sulfamide 200 ppb): 2.1
Ratio of the measurement intensities T/C ([3]; sulfamide 50 ppb): 3.4
Ratio of the measurement intensities T/C ([3]; sulfamide 100 ppb): 3.1
Ratio of the measurement intensities T/C ([3]; sulfamide 150 ppb): 3.4
Ratio of the measurement intensities T/C ([3]; sulfamide 200 ppb): 3
Ratio of the measurement intensities T/C ([4]; sulfamide 50 ppb): 1.9
Ratio of the measurement intensities T/C ([4]; sulfamide 100 ppb): 1.9
Ratio of the measurement intensities T/C ([4]; sulfamide 150 ppb): 2.1
Ratio of the measurement intensities T/C ([4]; sulfamide 200 ppb): 2.1
Ratio of the measurement intensities B/C ([7]; sulfamide 50 ppb): 2.1
Ratio of the measurement intensities B/C ([7]; sulfamide 100 ppb): 1.8
Ratio of the measurement intensities B/C ([7]; sulfamide 200 ppb): 1.8
Ratio of the measurement intensities B/C ([9]; sulfamide 50 ppb): 2.4
Ratio of the measurement intensities B/C ([9]; sulfamide 100 ppb): 2.2
Ratio of the measurement intensities B/C ([9]; sulfamide 150 ppb): 1.9
Ratio of the measurement intensities B/C ([9]; sulfamide 200 ppb): 2.4
Ratio of the measurement intensities T/C ([10]; sulfamide 50 ppb): 2.8
Ratio of the measurement intensities T/C ([10]; sulfamide 100 ppb): 2.7
Ratio of the measurement intensities T/C ([10]; sulfamide 200 ppb): 3
Compound: COc1cc(NS(=O)(=O)c2ccc(N)cc2)nc(OC)n1 [Sulfadimethoxin]
Ratio of the measurement intensities S/C ([2]; sulfamide 50 ppb): 1.6
Ratio of the measurement intensities S/C ([2]; sulfamide 100 ppb): 1
Ratio of the measurement intensities S/C ([2]; sulfamide 150 ppb): 0.85
Ratio of the measurement intensities S/C ([2]; sulfamide 200 ppb): 0.7
Ratio of the measurement intensities S/C ([2]; tetracycline 100 + sulfamide 100 ppb together): 0.95
Ratio of the measurement intensities S/C ([5]; sulfamide 50 ppb): 1.3
Ratio of the measurement intensities S/C ([5]; sulfamide 100 ppb): 0.9
Ratio of the measurement intensities S/C ([5]; sulfamide 200 ppb): 0.3
Ratio of the measurement intensities S/C ([5]; β-lactame 4 + tetracycline 100 + sulfamide 100 ppb together): 0.8
Ratio of the measurement intensities S/C ([6]; sulfamide 50 ppb): 2
Ratio of the measurement intensities S/C ([6]; sulfamide 100 ppb): 1
Ratio of the measurement intensities S/C ([6]; sulfamide 150 ppb): 0.85
Ratio of the measurement intensities S/C ([6]; sulfamide 200 ppb): 0.7
Ratio of the measurement intensities S/C ([6]; β-lactame 4 + sulfamide 100 ppb together): 0.95
Ratio of the measurement intensities S/C ([8]; ampicillin 4 + tetracycline 75 + sulfamide 100 ppb together): 0.7
Ratio test/control ([8]; at the detection limit concentration): 0.8
Concentration detection limit ([8]; sulfadimethoxin, three-parameter test): 100 ppb
Ratio of the measurement intensities S/C ([8]; sulfamide 50 ppb): 1.3
Ratio of the measurement intensities S/C ([8]; sulfamide 100 ppb): 0.8
Ratio of the measurement intensities S/C ([8]; sulfamide 150 ppb): 0.6
Ratio of the measurement intensities S/C ([8]; sulfamide 200 ppb): 0.4
